One assay has as its system Plasmodium falciparum. Description: Antimalarial activity against Plasmodium falciparum. Format: functional, organism-based.
For assay [1], the system named is Human immunodeficiency virus 1. Kind of assay: Antiviral activity against HIV1 A17 infected in human MT2 cells. Format: functional, organism-based. Conditions: Human immunodeficiency virus 1, A17, MT2.
Assay [2] has as its system Human immunodeficiency virus 1. Description: Antiviral activity against HIV1 RF infected in human CEM-SS cells. It is filed as functional, organism-based. The note with it: Human immunodeficiency virus 1, RF.
Assay [3] deals with Human immunodeficiency virus 1. Kind of assay: Antiviral activity against HIV1 OC100 infected in human CEM-SS cells. Format: functional, organism-based. Conditions: Human immunodeficiency virus 1, CEM-SS.
The test system of assay [4] is Human immunodeficiency virus 1. Kind of assay: Antiviral activity against HIV1 G9106 infected in human MT2 cells. It is filed as functional, organism-based. Conditions: Human immunodeficiency virus 1, G9106, MT2.
Another assay deals with CEM-SS. Description: Cytotoxicity against human CEM-SS cells. Format: cell-based.

Converted amounts (≈) assume the structure as drawn.

Compound `COc1cc(O)c(-c2ccc(OC)c3c(O)cc(C)cc23)c2c1[C@@H](C)N[C@H](C)C2` [KORUPENSAMINE E] gave an IC50 in the assay on Plasmodium falciparum of 2 mg/L (≈ 5.08 µM).
On to `COc1cc(C)cc2c(-c3c(O)cc(O)c4c3C[C@@H](C)N[C@@H]4C)cc(-c3cc(-c4c(O)cc(O)c5c4C[C@@H](C)N[C@@H]5C)c4cc(C)cc(OC)c4c3O)c(O)c12` [MICHELLAMINE A], for which the EC50 in assay [1] was 18 µM; in assay [2], 6 µM; in assay [3] it was 23 µM; in assay [4] it was 19 µM.
On to `COc1cc(C)cc2c(-c3c(O)cc(O)c4c3C[C@H](C)N(C)[C@@H]4C)cc(-c3cc(-c4c(O)cc(O)c5c4C[C@@H](C)N[C@@H]5C)c4cc(C)cc(OC)c4c3O)c(O)c12` [MICHELLAMINE E], for which half-maximal inhibition in the assay with CEM-SS (IC50) was put at 23 µM. Also, the EC50 is 13 µM in assay [1], 4 µM in assay [2], 11 µM in assay [3] and 15 µM in assay [4].
The corresponding values for `COc1cc(O)c(-c2cc(-c3cc(-c4c(O)cc(O)c5c4C[C@@H](C)N[C@@H]5C)c4cc(C)cc(OC)c4c3O)c(O)c3c(OC)cc(C)cc23)c2c1C(C)=N[C@H](C)C2` [MICHELLAMINE F] are 188 µM, 11 µM, 2 µM, 9 µM and 8 µM.
For `COc1cc(O)c(-c2cc(-c3cc(-c4c(O)cc(O)c5c4C[C@@H](C)N[C@@H]5C)c4cc(C)cc(OC)c4c3O)c(O)c3c(OC)cc(C)cc23)c2c1[C@@H](C)N[C@H](C)C2` [MICHELLAMINE D], in that order: 17 µM, 10 µM, 3 µM, 20 µM and 11 µM.

The values are drawn from ChEMBL document CHEMBL1146434, “Michellamines D-F, new HIV-inhibitory dimeric naphthylisoquinoline alkaloids, and korupensamine E, a new antimalarial monomer, from Ancistrocladus korupensis” (J Nat Prod, 1997).
